Measured values as given in patent US5095013A, “2-(2-vinylpyrrolidinylthio)carbapenem derivatives” (Banyu Pharmaceutical Co., Ltd., priority 1989, dated 1992).
≈ marks a conversion by molar mass, not a printed value. Where two headings read alike, the source gives them in different places. Values belong to the compound of their own block, whether it stands above or below them.

Columns and labels:
E. cloacae Nek39 = assay: in vitro antibacterial activity, agar plate dilution method (MIC); format: cell-based; conditions: Enterobacter cloacae, read-out: Minimum inhibitory concentration (MIC)
Method: (§1) One platinum loopful of each test microorganism incubated overnight in Mueller Hinton broth, was inoculated to Mueller Hinton agar (inoculum size: 10^6 CFU/ml). Such culture media contained antibacterial agents in various concentrations. After incubation at 37° C. for 16 hours, the minimum inhibitory concentrations (MIC: μg/ml) were measured.

Ps. aeruginosa MB5000 = assay: as above; format: cell-based; conditions: Pseudomonas aeruginosa, read-out: Minimum inhibitory concentration (MIC)
Method: as §1

S. aureus MB4970 = assay: as above; format: cell-based; conditions: Staphylococcus aureus, read-out: Minimum inhibitory concentration (MIC)
Method: as §1

[1] = test system: renal dehydropeptidase I (DHP-I); format: in vitro ADME
Description: The DHP-I susceptivity was quantitatively analyzed by the method by Kropp et al., Antimicrob., Agents Chemother., vol. 22, p. 62-70 (1982), whereby the smaller the numerical value representing the ratio to imipenem (=1.0), the higher the stability.

[2] = test system: methicillin resistant Staphylococcus aureus; conditions: prior art compounds; cited from earlier work
DHP-I [3] = conditions: cited from earlier work
[4] = test system: gram positive bacteria and gram negative bacteria; conditions: cited prior art; cited from earlier work
[5] = cited from earlier work
[6] = in vivo; cited from earlier work
DHP-I [7] = conditions: cited from earlier work; remark: listed apart in the source
[8] = due to the decomposition products; cited from earlier work
β-lactamase = conditions: cited from earlier work
[9] = test system: highly methicillin resistant Staphylococcus aureus resistant to imipenem; conditions: cited from earlier work
[10] = test system: imipenem resistant Pseudomonas aeruginosa; conditions: cited from earlier work

MIC (E. cloacae Nek39; E. cloacae Nek39, Mueller Hinton agar, inoculum 10^6 CFU/ml, 37° C., 16 hours): 0.025 µg/mL (≈ 0.0614 µM)
MIC (Ps. aeruginosa MB5000; Ps. aeruginosa MB5000, Mueller Hinton agar, inoculum 10^6 CFU/ml, 37° C., 16 hours): 0.39 µg/mL (≈ 0.957 µM)
MIC (S. aureus MB4970; S. aureus MB4970, Mueller Hinton agar, inoculum 10^6 CFU/ml, 37° C., 16 hours): 0.025 µg/mL (≈ 0.0614 µM)
DHP-I susceptivity [1]: 0.04
Compound: C[C@@H](O)[C@H]1C(=O)N2C(C(=O)O)=C(S[C@@H]3CN[C@H](/C=C4\CCNC4=O)C3)[C@H](C)[C@H]12 [Example 12, (1R,5S,6S)-6-[(R)-1-Hydroxyethyl]-1-methyl-2-[(2S,4S)-2[(E)-(2-oxopyrrolidin-3-ylidene)methyl]pyrrolidin-4-ylthio]-1-carbapen-2-em-3-carboxylic acid]

Compound: C[C@@H](O)[C@H]1C(=O)N2C(C(=O)O)=C(S[C@@H]3CN[C@H](C(=O)N(C)C)C3)[C@H](C)[C@H]12 [meropenem]
antibacterial activity against highly methicillin resistant Staphylococcus aureus (in words) [2]: not adequate
stability against DHP-I (in words) (DHP-I [3]; prior art compounds): substantially improved

Compound: C[C@@H](O)[C@H]1C(=O)N2C(C(=O)O)=C(SCCN)C[C@H]12 [thienamycin]
antibacterial activities (in words) [4]: strong antibacterial activities over a wide range against gram positive bacteria and gram negative bacteria
decomposition by DHP-I (in words) (DHP-I [3]; renal dehydropeptidase I, in vivo): likely to be decomposed by a certain enzyme in vivo such as renal dehydropeptidase I
chemical stability (in words) ([5]; cited prior art): chemically unstable
recovery rate in the urine [6]: low

Compound: C[C@@H](O)[C@H]1C(=O)N2C(C(=O)[O-])=C(S[C@@H]3CN[C@H](/C=C/C(N)=O)C3)[C@H](C)[C@H]12.[K+]
MIC (E. cloacae Nek39; NEK39, 16 h): 0.025 µg/mL
MIC (Ps. aeruginosa MB5000; MB5000, 16 h): 0.39 µg/mL
MIC (S. aureus MB4970; MB4970, 16 h): 0.025 µg/mL
DHP-I susceptivity [1]: 0.2

Compound: C[C@@H](O)[C@H]1C(=O)N2C(C(=O)O)=C(SCCN=CN)C[C@H]12 [Imipenem, imipenem]
DHP-I susceptivity [1]: 1.0
antibacterial activities (in words) [4]: antibacterial activities of an equal or higher level than thienamycin against various types of bacteria
decomposition by DHP-I in the human kidney (DHP-I [7]): likely to be decomposed by DHP-I in the human kidney
stability in the solid form or in an aqueous solution ([5]; compared with thienamycin): remarkably improved over thienamycin
toxicity against the kidney [8]: presents toxicity against the kidney due to the decomposition products
β-lactamase resistance (β-lactamase): has β-lactamase resistance
treating effect (in words) [9]: does not show adequate treating effects
treating effect (in words) [10]: does not show adequate treating effects
